# Laboratory results from PubChem BioAssay AID179 (DTP/NCI, 2004).
# The source made the active and inactive calls.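 How the source made its calls: active means compounds giving half or more protection of infected cells from virus-caused growth loss, again on retest; inactive means the rest.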
# System: CEM cells HIV-1 protection, formazan growth assay
# Assay: NCI AIDS Antiviral Assay
# Conditions: for IC50: measured here: growth of uninfected CEM cells
# Outline: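 Soluble formazan readout of cell growth; CEM cells ± HIV-1; 5 drug concs. ≥50% protection → retest; ≥50% again = moderately active; reproducible 100% = confirmed active.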
Structure (SMILES),EC50 [µM],IC50 [µM],outcome
CN1C/C(=C\c2cccs2)C2=NC(=S)NC(c3cccs3)C2C1 (stereo not drawn),> 200,36.3,–
O=c1[nH]cc(CN2CCOCC2)c(=O)[nH]1,> 617,> 617,–
CN(NC(=O)/C(=C/c1ccc(Cl)cc1)NC(=O)c1ccccc1)c1cn[nH]c(=O)c1Cl,> 200,6.92,–
Cc1cn2c(nc1=O)OC1C(O)C(CCl)OC12 (stereo not drawn),> 200,> 200,–
CCOc1ccccc1N=Nc1ccc2oc(=O)c(C(C)=O)cc2c1,> 8.13,> 8.13,–
COc1cc(O)c2c(=O)c(OC)c(-c3ccc(OC)c(OC)c3)oc2c1,–,–,inactive
O=[N+]([O-])c1ccc(C2N3CCCCC3[C@H]3CCCCN23)cc1 (stereo partly drawn),> 24,> 24,–
CC(=O)NC1C(=O)N(c2ccccc2)C1c1ccccc1 (stereo not drawn),> 178,> 178,–
COc1ccc(/C=C/CO)cc1OC,–,–,inactive
Cc1cccc(C)c1NC(=O)CCCC(=O)C(C#N)c1ccccc1 (stereo not drawn),> 741,> 741,–
CC(=O)O[C@H]1CC[C@H]2[C@@H]3CCC4=C/C(=N/OCCN(C)C)CC[C@]4(C)[C@H]3CC[C@]12C,> 200,0.955,–
CCOC(=O)c1ccccc1NN1C(=O)C=CC1=O,> 347,52.5,–
N#Cc1sc2c(c1OC(=O)c1cccs1)c(=O)n(-c1ccccc1)c(=S)n2-c1ccccc1,> 200,6.03,–
O=S(Cc1ccc2c(c1)OCO2)c1ccccc1 (stereo not drawn),> 955,661,–
O=C1c2ccccc2S(=O)(=O)c2cc(-c3nn[nH]n3)ccc21,> 200,> 200,–
CN=c1ncc2nc(-c3ccccc3)c(-c3ccccc3)n(C)c-2n1,–,–,inactive
[O-][N+]1=C2CCC/C(=N/O)C2(O)C2CCCCC21N1CCOCC1 (stereo not drawn),> 200,> 200,–
O=S1(=O)OCCCO1,> 1820,> 1820,–
CCCc1n[nH]c(=O)n1N1C(=O)C=CC1=O,> 200,> 200,–
CCOC(=O)/C(N=Nc1ccc(-n2c(C)nc3ccc(Br)cc3c2=O)cc1)=C(/C)O,> 200,39.8,–
S=c1[nH]nc(Cc2ccccc2)c(=S)[nH]1,–,–,inactive
Cc1nnc2n(c1=O)CCN2C,> 200,> 200,–
COc1ccc2nc3c([N+](=O)[O-])ccc4c3c(c2c1)N(CCCN(C)C)C(=S)N4CCCN(C)C,> 2,0.537,–

Structure (SMILES),EC50 [µM],IC50 [µM],outcome
O=C1CCc2cc3c(cc21)CC1(Cc2ccccc2C1)C3,> 200,4.57,–
OCC1C2C=CC(O2)[C@H]1CO (stereo partly drawn),–,–,inactive
C1CSCCSCCCSCCSCCCSCCSCCCSCCSC1,> 7.08,> 7.08,–
COC1C2c3cc4c(cc3CC(C#N)(c3ccccc32)N1C(=O)c1ccccc1)OCO4 (stereo not drawn),–,–,inactive
O=C1[C@H]2ON(c3ccccc3)C(c3cccc([N+](=O)[O-])c3)[C@H]2C(=O)N1c1ccc(Cc2ccc(N3C(=O)[C@@H]4ON(c5ccccc5)C(c5cccc([N+](=O)[O-])c5)[C@@H]4C3=O)cc2)cc1 (stereo partly drawn),> 6.17,> 6.17,–
C=C([C@@]1(O)C[C@H]2[C@H](CCC2(OC)OC)[C@@H]2c3ccccc3O[C@@H]21)[Si](C)(C)C,–,–,inactive
O=C(NN1C(=O)C(Cl)C1c1cccc(Cl)c1)c1ccccc1O (stereo not drawn),> 74.1,> 74.1,–
O=C(Nc1ccccc1[N+](=O)[O-])/C(=N/Nc1cccc(Cl)c1)c1c(O)c2ccccc2oc1=O,> 53.7,> 53.7,–
CCN(CC)c1ccc2c(c1)N=C1N=CC=CN1C2(c1ccc(N(C)C)cc1)c1ccc(N(C)C)cc1,–,–,inactive
CSc1nc2c(=O)oc(-c3ccc(Cl)cc3)nc2s1,> 200,110,–
CCOC(=O)C1(C)CC12CCCCC2 (stereo not drawn),> 200,> 200,–
CC(=O)Oc1ccc(-c2oc3c([C@H]4C=C(C)CC(c5ccc(OC(C)=O)cc5OC(C)=O)[C@@H]4C(=O)c4ccc(OC(C)=O)c(CC=C(C)C)c4OC(C)=O)c(OC(C)=O)cc(OC(C)=O)c3c(=O)c2CC=C(C)C)c(OC(C)=O)c1 (stereo partly drawn),> 8.13,> 8.13,–
COC1=CC(=O)C=C(OC)C1=O,> 214,1.12,–
C(=C(c1ccc(OC2CCCCO2)cc1)c1ccc(OC2CCCCO2)cc1)c1ccccc1 (stereo not drawn),> 2,1.12,–
O=S(=O)(c1ccccc1)n1c2ccc(Br)cc2c2nc3ccccc3nc21,> 200,> 200,–
CNC(=O)OCc1nc(N=[N+]=[N-])n(C)c1COC(=O)NC,> 200,42.7,–
CC(=O)OCC1OC(n2c(C)c(C(C)=O)c(-c3ccc(Cl)cc3)c(C#N)c2=S)C(OC(C)=O)C(OC(C)=O)C1OC(C)=O (stereo not drawn),> 200,148,–
CC1=CCC(C(C)(C)NC(=O)c2ccccc2)C/C1=N/O (stereo not drawn),> 91.2,> 91.2,–
CCOC(=O)c1ccc(NC(=O)O/N=C(/Cl)CCl)cc1,> 200,18.6,–
O=C(/C=C\c1cccc(O)c1)/C=C/c1cccc(O)c1,107,112,–
COC1C=CC23c4cc5c(cc4C(O)OC2CN(C)C3C1)OCO5 (stereo not drawn),> 200,0.891,–
O=S(=O)(C=C=CCO)c1ccccc1,–,–,inactive
O=Nc1c(O)cc(O)c2ccccc12,–,–,inactive

Structure (SMILES),EC50 [µM],IC50 [µM],outcome
COC(=O)C1=C(C(=O)OC)c2cc(OC)ccc2C(C(=S)N(C)C)S1 (stereo not drawn),> 200,> 200,–
CN(C1=NCCO1)c1cccc2ccccc12,> 200,129,–
O=C(O)C1[C@@H](C(=O)O)C1(Br)CBr (stereo partly drawn),> 200,> 200,–
N#CC(C#N)=Cc1cc(O)c(O)c(O)c1,> 200,31.6,–
NC(N)=NS(=O)(=O)c1ccc(NNC(=O)c2cccc3c(=O)c4ccccc4[nH]c23)cc1,> 200,33.9,–
CCOP(=O)(OCC)C(C)(C)OC(=O)NC#N,> 200,> 200,–
O=C1OCCOCCOCCOCCOCCOCCOC(=O)c2cccc1n2,> 107,56.2,–
O=C(OCCN=c1c2ccccc2ccc2ccccc12)c1cc([N+](=O)[O-])cc([N+](=O)[O-])c1,> 200,158,–
O=C1CSC(=S)N1Cc1ccncc1,> 200,4.27,–
O=C1c2ccccc2-c2c1c(-c1ccccc1)c1n2C2(C(=O)c3ccccc3C2=O)C2C(=O)N(c3ccccc3)C(=O)C12 (stereo not drawn),> 200,120,–
COC(=O)C(COC(C)=O)NC(=O)/C=C/c1ccc(O)c(OC(C)=O)c1 (stereo not drawn),> 200,10,–
COC(=O)CCC(C)C1CCC2[C@@H]3CC[C@@H]4CC(O)CC[C@]4(C)C3CC[C@]12C (stereo partly drawn),> 25.7,> 25.7,–
COC(=O)C1=C(C)N2[C@H](C(=O)O)CS[C@@]2(C)[C@H](C(=O)OC)[C@H]1c1cccc([N+](=O)[O-])c1,> 200,148,–
COc1ccccc1CNCCCCCCNCCSSCCNCCCCCCNCc1ccccc1OC,> 200,57.5,–
Cc1ccc(S(=O)(=O)N/N=c2/sc3ccccc3n2C)cc1,> 200,> 200,–
O=C(O)c1cc(C(=O)O)c(C(=O)O)c(C(=O)O)c1C(=O)O,–,–,inactive
O=C(NCc1ccc(Cl)cc1)c1cc2sccc2nc1C(F)(F)F,93.3,> 200,–
O=C1CCC2(c3ccccc3)Nc3ccc(Cl)cc3N12 (stereo not drawn),–,–,inactive
CCC1(Br)OC1=O (stereo not drawn),> 200,107,–
O=S(=O)(O)c1cccc2c1CN1CCCCC1C2 (stereo not drawn),> 200,> 200,–
CCOC(=O)/C=C1\Oc2ccccc2C1(C)O (stereo not drawn),> 562,> 562,–
NC(N)=C1CN(C2CCCCC2)C(=O)NC1=O,> 1050,794,–
CC12NC(=C(C#N)C#N)C(C#N)=C3NC(N)=C(C#N)C(=C31)Oc1ccccc12 (stereo not drawn),> 200,5.89,–

Structure (SMILES),EC50 [µM],IC50 [µM],outcome
C1Cc2nnnn2C1,> 2290,> 2290,–
O=Cc1ccc(-c2cccs2)s1,–,–,inactive
N#Cc1c(=O)c2ccccc2n2ccccc12,> 100,> 100,–
COCCOCOC(C)(C)[C@H](CCOC(C)=O)O[Si](c1ccccc1)(c1ccccc1)C(C)(C)C,–,–,inactive
CCOc1ccc(N)c(S)c1,> 200,26.9,–
Cc1c(NC=C(C#N)C#N)c(=O)n(-c2ccccc2)n1C,> 200,> 200,–
CC(=O)O[C@@H]1[C@H]2O[C@H]2[C@H]2O[C@@]2(COC(=O)c2ccccc2)[C@H]1OC(C)=O,> 200,91.2,–
Cn1cnc([N+](=O)[O-])c1Sc1ncnc2nc[nH]c12,> 200,10.7,–
C=C1C(=O)O[C@@H]2CC(C)C3C(O)CC(O)[C@@]3(C)C[C@H]12 (stereo partly drawn),> 933,14.1,–
Cc1cc(Cl)ccc1N=C1NC(=O)C(CC(=O)Nc2ccc([N+](=O)[O-])cc2[N+](=O)[O-])S1 (stereo not drawn),> 77.6,67.6,–
CCCCCCCCCN1CCC(=O)C(C(=O)OC)C1 (stereo not drawn),> 200,4.68,–
Cc1cn([C@H]2CS[C@@H](CO)CO2)c(=O)[nH]c1=O,–,–,inactive
CCNC(=O)c1ccc(C)c(N=NN(C)C)c1,> 288,> 288,–
CC(C)CCC[C@@H](C)[C@H]1CC[C@H]2C3=C[C@H](OS(=O)(=O)O)[C@@]4(O)C[C@@H](O)CC[C@]4(C)[C@@]3(O)CC[C@]12C,> 200,97.7,–
Cc1cccc(/C=C2\CCCc3ccccc3C2=O)c1,> 200,11.2,–
CCSC1(SCC)CC(Cc2ccc(OC)cc2)N(C=NC(C)(C)C)C1 (stereo not drawn),> 240,57.5,–
Cc1cc(C)nc(NS(=O)(=O)c2ccc(NNc3c4ccccc4nc4c(C(=O)Nc5ccc(S(N)(=O)=O)cc5)cccc34)cc2)n1,> 200,11,–
C=CCCCCCCCCCP(=O)(c1ccccc1)c1ccc2c(c1)OCCOCCOCCOCCO2 (stereo not drawn),> 200,1.7,–
CC(C)(C)C1CCC(=O)C(C(O)CC2CC(=O)N(c3ccccc3)C(=O)C2)C1 (stereo not drawn),> 200,> 200,–
S=C1C=C(c2ccccc2)Sc2ccccc2N1,> 200,60.3,–
